Square brackets hold non-standard residues; d marks the D form. Peptide text beside a SMILES is read from it. MeBmt = C/C=C/C[C@@H](C)[C@@H](O)[C@H](NC)C(=O)O; NEtVal = CCN[C@H](C(=O)O)C(C)C; NMeL = CN[C@@H](CC(C)C)C(=O)O; NMeV = CN[C@H](C(=O)O)C(C)C; dHiv = CC(C)[C@@H](O)C(=O)O; dNMeA = CN[C@H](C)C(=O)O; Abu = CC[C@H](N)C(=O)O
How the values were obtained:
Test in all cases: microbe, parasite or virus in culture
[1] = tested on: Human immunodeficiency virus 1; conditions: Human immunodeficiency virus 1, 3B, MT4, 96 h
Description: Antiviral activity against HIV1 3B infected in human MT4 cells coinfected with HTLV1 assessed as reduction in virus-induced cytopathogenicity after 4 days by MTT assay

[2] = tested on: Human immunodeficiency virus 1; conditions: Human immunodeficiency virus 1, 3B, CEM-SS, 144 h
Description: Antiviral activity against HIV1 3B infected in human CEM-SS cells assessed as reduction in virus-induced cytopathogenicity after 6 days by MTS assay

Hepatitis C virus [3] = conditions: genotype 2b
Description: Antiviral activity against Hepatitis C virus genotype 2b infected in human Huh-9-13 cells after overnight incubation by MTT assay

Hepatitis C virus [4] = conditions: Huh-7, 72 h
Description: Antiviral activity against Hepatitis C virus infected in human Huh7ET cells after 72 hrs by luciferase reporter gene assay

Hepatitis C virus [5] = conditions: Huh-7
Description: Antiviral activity against Hepatitis C virus infected in human Huh7ET cells by luciferase reporter gene assay

Hepatitis C virus [6] = tested on: Hepatitis C virus
Description: Antiviral activity against Hepatitis C virus

[7] = tested on: Human immunodeficiency virus 1; conditions: Human immunodeficiency virus 1, LAI, CEM-4
Description: Antiviral activity against HIV1 LAI infected in human CEM4 cells assessed as inhibition of viral replication

Hepatitis C virus [8] = conditions: Huh-7; remark: listed apart in the source
Description: Antiviral activity against Hepatitis C virus infected in human HuH7 cells by luciferase reporter gene assay

Hepatitis C virus [9] = conditions: 16 h
Description: Antiviral activity against Hepatitis C virus after 16 hrs by cell-based assay

[10] = tested on: Human immunodeficiency virus 1; conditions: Human immunodeficiency virus 1, 3B, MT4
Description: Antiviral activity against HIV1 3B infected in human MT4 cells assessed as reduction in virus-induced cytopathogenicity after 5 to 6 days by MTT assay

Hepatitis C virus [11] = conditions: Huh-5-2, 72 h
Description: Antiviral activity against Hepatitis C virus infected in human HuH5.2 cells after 72 hrs by luciferase reporter gene assay

C/C=C/C[C@@H](C)[C@@H](O)[C@H]1C(=O)N[C@@H](CC)C(=O)N(C)CC(=O)N(C)[C@@H](CC(C)C)C(=O)N[C@@H](C(C)C)C(=O)N(C)[C@@H](CC(C)C)C(=O)N[C@@H](C)C(=O)N[C@H](C)C(=O)N(C)[C@@H](CC(C)(C)O)C(=O)N(C)[C@@H](CC(C)C)C(=O)N(C)[C@@H](C(C)C)C(=O)N1C
EC50 [1]: 255 nM

C/C=C/C[C@@H](C)[C@@H](O)[C@H]1C(=O)N[C@@H](CC)C(=O)N(C)C(OC(C)=O)C(=O)N(C)[C@@H](CC(C)C)C(=O)N[C@@H](C(C)C)C(=O)N(C)[C@@H](CC(C)C)C(=O)N[C@@H](C)C(=O)N[C@H](C)C(=O)N(C)[C@@H](CC(C)C)C(=O)N(C)[C@@H](CC(C)C)C(=O)N(C)[C@@H](C(C)C)C(=O)N1C (stereo partly specified)
IC50 [2]: 119 nM

C/C=C/C[C@@H](C)[C@@H](O)[C@H]1C(=O)N[C@@H](CC)C(=O)N(C)[C@H](C)C(=O)N(CC)[C@@H](C(C)C)C(=O)N[C@@H](CC(C)C)C(=O)N(C)[C@@H](CC(C)C)C(=O)N[C@@H](C)C(=O)O[C@H](C(C)C)C(=O)N(C)[C@@H](CC(C)C)C(=O)N[C@@H](CC(C)C)C(=O)N(C)[C@@H](C(C)C)C(=O)N1C (cyclo(A[dHiv][NMeL]L[NMeV][MeBmt][Abu][dNMeA][NEtVal]L[NMeL]))
EC50 (Hepatitis C virus [3]): 37 nM

C/C=C/C[C@@H](C)[C@@H](O)[C@H]1C(=O)N[C@@H](CC)C(=O)N(C)CC(=O)N(C)[C@@H](C(C)C)C(=O)N[C@@H](C(C)C)C(=O)N(C)[C@@H](CC(C)C)C(=O)N[C@@H](C)C(=O)N[C@H](C)C(=O)N(C)[C@@H](CC(C)C)C(=O)N(C)[C@@H](CC(C)C)C(=O)N(C)[C@@H](C(C)C)C(=O)N1C
EC50 [1]: 54 nM

C/C=C/C[C@@H](C)[C@@H](O)[C@H]1C(=O)N[C@@H](CC)C(=O)N(C)CC(=O)N(C)[C@@H](CC(C)(C)OCc2ccccc2)C(=O)N[C@@H](C(C)C)C(=O)N(C)[C@@H](CC(C)C)C(=O)N[C@@H](C)C(=O)N[C@H](C)C(=O)N(C)[C@@H](CC(C)C)C(=O)N(C)[C@@H](CC(C)C)C(=O)N(C)[C@@H](C(C)C)C(=O)N1C
EC50 (Hepatitis C virus [4]): 410 nM

C/C=C/C[C@@H](C)[C@@H](O)[C@H]1C(=O)N[C@@H](CC)C(=O)N(C)[C@H](SCCCN2CCOCC2)C(=O)N(C)[C@@H](CC(C)(C)O)C(=O)N[C@@H](C(C)C)C(=O)N(C)[C@@H](CC(C)C)C(=O)N[C@@H](C)C(=O)N[C@H](C)C(=O)N(C)[C@@H](CC(C)C)C(=O)N(C)[C@@H](CC(C)C)C(=O)N(C)[C@@H](C(C)C)C(=O)N1C
EC50 (Hepatitis C virus [5]): 40 nM

C/C=C/C[C@@H](C)[C@@H](O)[C@H]1C(=O)N[C@@H](CC)C(=O)N(C)CC(=O)N(C)[C@@H](CC(C)(C)O)C(=O)N[C@@H](C(C)C)C(=O)N(C)[C@@H](CC(C)C)C(=O)N[C@@H](C)C(=O)N[C@H](C)C(=O)N(C)[C@@H](CC(C)C)C(=O)N(C)[C@@H](CC(C)C)C(=O)N(C)[C@@H](C(C)C)C(=O)N1C
EC50 [1]: 279 nM

C/C=C/C[C@@H](C)[C@@H](O)[C@H]1C(=O)N[C@@H](CC)C(=O)N(C)[C@H](OC)C(=O)N(C)[C@@H](CC(C)(C)O)C(=O)N[C@@H](C(C)C)C(=O)N(C)[C@@H](CC(C)C)C(=O)N[C@@H](C)C(=O)N[C@H](C)C(=O)N(C)[C@@H](CC(C)C)C(=O)N(C)[C@@H](CC(C)C)C(=O)N(C)[C@@H](C(C)C)C(=O)N1C
EC50 [2]: 60 nM

C/C=C/C[C@@H](C)[C@@H](O)[C@H]1C(=O)N[C@@H](CC)C(=O)N(C)CC(=O)N(C)[C@@H](CC(C)C)C(=O)N[C@@H](C(C)C)C(=O)N(C)[C@@H](CC(C)C)C(=O)N[C@@H](C)C(=O)N[C@H](C)C(=O)N(C)[C@@H](CC(C)C)C(=O)N(C)[C@@H](CC(C)C)C(=O)N(C)[C@@H](C(C)C)C(=O)N1C [CYCLOSPORINE]
EC50 (Hepatitis C virus [6]): 230 nM | EC50 [1]: 450 nM

C/C=C/C[C@@H](C)[C@@H](O)[C@H]1C(=O)N[C@@H](CC)C(=O)N[C@H](C)C(=O)N(C)[C@@H](CC(C)C)C(=O)N(C/C=C(\C)CO)[C@@H](C(C)C)C(=O)N(C)[C@@H](CC(C)C)C(=O)N[C@@H](C)C(=O)N[C@H](C)C(=O)N(C)[C@@H](CC(C)C)C(=O)N(C)[C@@H](CC(C)C)C(=O)N(C)[C@@H](C(C)C)C(=O)N1C
EC50 (Hepatitis C virus [6]): 50 nM

C/C=C/C[C@@H](C)[C@@H](O)[C@H]1C(=O)N[C@@H](CC)C(=O)N(C)[C@H](SCCN(CC)CC)C(=O)N(C)[C@@H](CC(C)C)C(=O)N[C@@H](C(C)C)C(=O)N(C)[C@@H](CC(C)C)C(=O)N[C@@H](C)C(=O)N[C@H](C)C(=O)N(C)[C@@H](CC(C)C)C(=O)N(C)[C@@H](CC(C)C)C(=O)N(C)[C@@H](C(C)C)C(=O)N1C
EC50 [7]: 2.5 nM

C/C=C/C[C@@H](C)[C@@H](OC(C)=O)[C@H]1C(=O)N[C@@H](CC)C(=O)N(C)C(OC(C)=O)C(=O)N(C)[C@@H](CC(C)C)C(=O)N[C@@H](C(C)C)C(=O)N(C)[C@@H](CC(C)C)C(=O)N[C@@H](C)C(=O)N[C@H](C)C(=O)N(C)[C@@H](CC(C)C)C(=O)N(C)[C@@H](CC(C)C)C(=O)N(C)[C@@H](C(C)C)C(=O)N1C (stereo partly specified)
IC50 [2]: 115 nM

CC[C@@H]1NC(=O)[C@H]([C@H](O)[C@H](C)C/C=C/CO)N(C)C(=O)[C@H](C(C)C)N(C)C(=O)[C@H](CC(C)C)N(C)C(=O)[C@H](CC(C)C)N(C)C(=O)[C@@H](C)NC(=O)[C@H](C)NC(=O)[C@H](CC(C)C)N(C)C(=O)[C@H](C(C)C)NC(=O)[C@H](CC(C)C)N(C)C(=O)CN(C)C1=O
EC50 [1]: 460 nM

C/C=C/C[C@@H](C)[C@@H](O)[C@H]1C(=O)N[C@@H](CC)C(=O)N(C)[C@@H](CSCCCN2CCOCC2)C(=O)N(C)[C@@H](CC(C)(C)O)C(=O)N[C@@H](C(C)C)C(=O)N(C)[C@@H](CC(C)C)C(=O)N[C@@H](C)C(=O)N[C@H](C)C(=O)N(C)[C@@H](CC(C)C)C(=O)N(C)[C@@H](CC(C)C)C(=O)N(C)[C@@H](C(C)C)C(=O)N1C
EC50 (Hepatitis C virus [8]): 20 nM

C/C=C/C[C@@H](C)[C@@H](O)[C@H]1C(=O)N[C@@H](CC)C(=O)N(C)[C@H](SCCN(C)C)C(=O)N(C)[C@@H](CC(C)(C)O)C(=O)N[C@@H](C(C)C)C(=O)N(C)[C@@H](CC(C)C)C(=O)N[C@@H](C)C(=O)N[C@H](C)C(=O)N(C)[C@@H](CC(C)C)C(=O)N(C)[C@@H](CC(C)C)C(=O)N(C)[C@@H](C(C)C)C(=O)N1C [SCY 635]
EC50 [7]: 45 nM

C/C=C/C[C@@H](C)[C@@H](O)[C@H]1C(=O)N[C@@H](CC)C(=O)N(C)[C@@H](CSCCN2CCOCC2)C(=O)N(C)[C@@H](CC(C)(C)O)C(=O)N[C@@H](C(C)C)C(=O)N(C)[C@@H](CC(C)C)C(=O)N[C@@H](C)C(=O)N[C@H](C)C(=O)N(C)[C@@H](CC(C)C)C(=O)N(C)[C@@H](CC(C)C)C(=O)N(C)[C@@H](C(C)C)C(=O)N1C
EC50 [2]: 94.9 nM

C/C=C/C[C@@H](C)[C@@H](O)[C@H]1C(=O)N[C@@H](CC)C(=O)N(C)CC(=O)N(C)[C@@H]([C@@H](C)CC)C(=O)N[C@@H](C(C)C)C(=O)N(C)[C@@H](CC(C)C)C(=O)N[C@@H](C)C(=O)N[C@H](C)C(=O)N(C)[C@@H](CC(C)C)C(=O)N(C)[C@@H](CC(C)C)C(=O)N(C)[C@@H](C(C)C)C(=O)N1C [NIM811]
EC50 [1]: 47 nM

C/C=C/C[C@@H](C)[C@@H](O)[C@H]1C(=O)N[C@@H]([C@@H](C)O)C(=O)N(C)CC(=O)N(C)[C@@H](CC(C)C)C(=O)N[C@@H](C(C)C)C(=O)N(C)[C@@H](CC(C)C)C(=O)N[C@@H](C)C(=O)N[C@H](C)C(=O)N(C)[C@@H](CC(C)CO)C(=O)N(C)[C@@H](CC(C)C)C(=O)N(C)[C@@H](C(C)C)C(=O)N1C (stereo partly specified)
EC50 (Hepatitis C virus [9]): < 3000 nM

C/C=C/C[C@@H](C)[C@@H](O)[C@H]1C(=O)N[C@@H](CC)C(=O)N(C)[C@H](C)C(=O)N(CC)[C@@H](C(C)C)C(=O)N[C@@H](C(C)C)C(=O)N(C)[C@@H](CC(C)C)C(=O)N[C@@H](C)C(=O)N[C@H](C)C(=O)N(C)[C@@H](CC(C)C)C(=O)N(C)[C@@H](CC(C)C)C(=O)N(C)[C@@H](C(C)C)C(=O)N1C [ALISPORIVIR]
EC50 [10]: 63 nM | EC50 (Hepatitis C virus [11]): 25 nM

— ChEMBL document CHEMBL2407038, “Cyclophilin inhibitors as antiviral agents” (Bioorg Med Chem Lett, 2013)
